Tests used:
D2 receptor [1] = target: T1, D2 receptor (Homo sapiens, UniProt P14416); conditions: Bioorg. Med. Chem. 17 (2009) 1716-1723; cited from earlier work
T1 construct: expressed in transfected cells; host or cells: HEK293

D4 receptor = target: T2, D4 receptor (Homo sapiens, UniProt P21917); conditions: Bioorg. Med. Chem. 17 (2009) 1716-1723; cited from earlier work
T2 sequence (P21917 1-419): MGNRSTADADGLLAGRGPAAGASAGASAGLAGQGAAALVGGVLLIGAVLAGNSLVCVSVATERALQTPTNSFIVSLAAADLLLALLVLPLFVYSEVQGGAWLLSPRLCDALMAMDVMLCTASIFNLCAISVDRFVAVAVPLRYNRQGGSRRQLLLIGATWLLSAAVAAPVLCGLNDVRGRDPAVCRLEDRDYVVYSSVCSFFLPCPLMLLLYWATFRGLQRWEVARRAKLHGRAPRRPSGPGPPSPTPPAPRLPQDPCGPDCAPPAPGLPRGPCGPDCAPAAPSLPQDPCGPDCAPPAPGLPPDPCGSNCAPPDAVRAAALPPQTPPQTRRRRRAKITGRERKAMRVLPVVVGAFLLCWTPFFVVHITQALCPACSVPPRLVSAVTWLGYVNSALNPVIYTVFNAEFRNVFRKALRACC

D2 receptor [2] = target: T1, D2 receptor; assay: D2 receptor function assay, calcium mobilization (FLIPR); format: cell-based; conditions: HEK293, antagonism of D2 receptor
Method: (§1) Bioactivity Test • I. D2 receptor affinity assay: The affinity of the compound to D2 receptor was determined by radioligand competition assay, and the cloned D2 receptor was expressed in HEK293 cell line. • II. D2 receptor function assay: The ability of the compound to antagonize the D2 receptor was determined using a calcium mobilization assay (FLIPR). • III. DAT receptor function assay: The ability of the compound to inhibit DAT was determined by neurotransmitter transporter absorption assay.
• Cell line: HEK293 • DMEM medium (Invitrogen) • Fetal bovine serum (FBS, Invitrogen) • L-Glutamine (Invitrogen) G418 (Invitrogen) • Blasticidin (Invitrogen)
• Fluo-4 Direct Kit (Invitrogen)
• 250 mM Probenecid solution was formulated: according to the kit instructions, 1 mL of FLIPR buffer salt solution was added to 77 mg probenecid just before needed. • 2× (8 μM) Fluo-4 Direct™ loading buffer was formulated: the number of tubes in Fluo-4 Direct™ needed for the experiment was melted in advance. Just before needed, 10 ml of FLIPR buffer salt solution and 0.2 mL of 250 mM Probenecid solution were added to each tube and vortexed in dark for more than 5 minutes.
• a) One tube of cells was taken from the liquid nitrogen tank and quickly thawed in 37° C. water bath. • b) The cell suspension was added to a centrifuge tube to which the preheated 20 ml medium was added in advance. • c) The centrifuge tube was centrifuged at 1000 rpm for 5 minutes at room temperature. • d) The supernatant was slowly decanted to avoid affecting the precipitated cells. • e) The cells were resuspended with 10-30 ml medium by pipetting the cells gently with a pipette. • f) The viability and number of cells were calculated with the cell counter. • g) The cells were diluted to 1×10^5 cells/ml with medium, and inoculated in the 384-well polylysine coated cell plate at 20 μL/well. • h) The plate was incubated in an incubator at 5% CO2, 37° C. for 16 to 20 hours.
10 μL of experimental buffer salt solution was added into the cell plate according to the set program, and the fluorescence signal was read. 10 μL of agonist reference compound was further added at a given concentration to the cell plate and the fluorescence signal was read. After reading, the data was derived by “Max-Min” and “Read 90 to Maximum Allowed” methods in the software and EC80 of the corresponding cell line was calculated, and the reference compound with a concentration of 6× EC80 was prepared. • f) The FLIPR instrument software was run. 10 μL of the compound to be tested and the reference compound at a given concentration were added into the cell plate according to the set program, and the fluorescence signal was read. 10 μL of reference compound agonist was further added at a concentration of 6× EC80 to the cell plate and the fluorescence signal was read. • g) Data Analysis • Calculation formula for data in the project:
Inhibitor % activity=100−(signal value per well−average value for high dose control group of inhibitor)/(average value for DMSO control group−average value for high dose control group of inhibitor)*100%.

D2 receptor [3] = target: T1, D2 receptor; assay: D2 receptor affinity assay (radioligand competition, 3H-7-OH-DPAT); format: binding; conditions: cloned D2 receptor expressed in HEK293 cell line; 3H-7-OH-DPAT 1 nM
Method: as §1
• Experimental buffer: 50 mM Tris-HCl, pH 7.4, 5 mM MgCl2 • Washing buffer: 50 mM Tris-HCl pH 7.4, stored at 4° C. ready for use.
• The compound and positive control 7-OH-DPAT were serially diluted with DMSO, with the initial concentration of 2 mM and 4 times serial dilution, a total of 10 concentrations. 1 μL was transferred to the designated position of the 96-well plate. • 1 μL droperidol (final concentration 10 μM) was added to the positive control well. 1 μL DMSO was added to the negative control well.
• Receptor cell membrane was diluted to 10 μg/well with corresponding experimental buffer, with 100 μL cell membrane/well.
• 3H-7-OH-DPAT was diluted to 2 nM with corresponding experimental buffer, and the final concentration was 1 nM.
• After 100 μL of cell membrane and isotope were added, respectively, the reaction plate of the D2 receptor was incubated at room temperature for 1 hour. The GF/C filter plate was soaked in 0.3% PEI solution for more than half an hour. After the reaction was completed, the cell membrane was collected on the GF/C filter plate using the […], washed 4 times with cold washing buffer, and then dried in an oven at 50° C. for 1 hour. The dried GF/C filter plate was sealed at the bottom, 50 μL of scintillation fluid was added to each well and the well was sealed. Reads were obtained by MicroBeta and the data was analyzed using GraphPad Prism 5.0.
Ki=IC50/(1+isotope concentration/Kd)

DAT = DAT (Homo sapiens, UniProt Q01959); assay: DAT transporter assay (neurotransmitter transporter absorption assay); format: cell-based
Method: as §1
• HBSS1×, REPES 20 mM, BSA 0.1%.
• Lyophilized fluorescent dye 1 vial, Assay buffer 10 mL.
• BTCP—hydrochloride (Sigma)
• i) The medium was preheated in 37° C. water bath in advance for more than 30 minutes for later use. • j) The preheated medium was taken out, disinfected with 75% alcohol, and put into a biosafety cabinet. • k) The cultured cells were taken out from the […], and the medium was removed by a vacuum pump. 1× DPBS was added, incubated for a moment, and then removed by a vacuum pump. Appropriate amount of 0.05% trypsin-EDTA was added for cell digestion. The digestion was terminated by 10% FBS medium, and the cells were pipetted and dispersed. • l) The dispersed cells were transferred into a 50 mL centrifuge tube with a pipette.
• a) The reference compound was diluted in a ratio of 1:3 to 10 concentration gradients with the detection buffer containing 0.1% BSA, with the highest concentration being 2 μM. The compound to be tested was diluted to 20 uM with the detection buffer containing 0.1% BSA. • b) A centrifuge (750 rpm, 15 s) was used to spin off the culture solution in the cell culture plate, and the compound solution in step 1 was transferred to the cell culture plate (25 uL/well). • HC (High control): 25 μL of 0.1% BSA detection buffer containing 0.2% DMSO. • LC (Low control): 25 μL of solution containing 2 μM positive antagonist. • c) After centrifugation at 300 rpm for 15 seconds, the plate was incubated at 37° C. for 30 minutes. After the incubation with the compound was completed, a dye solution (25 μL/well) was added and incubated at 37° C. for 30 minutes.
Inhibitor % activity=100−(signal value per well−average value for LC well)/(average value for H well−average value for LC well)*100%.

[4] = test system: PCP-induced high locomotor activity in mice; assay: Phencyclidine (PCP) induced high locomotor activity (LMA) in mice; format: in vivo; design: Distance resulting from the activity, First 30 min / Distance resulting from the activity, Last 30 min: unit not given here; conditions: PCP 5.0 mg/kg s.c.; 5 mg/kg p.o. (low dose group; olanzapine positive control); male ICR mice
Description: • 1. The effect of the compound on phencyclidine (PCP) induced high locomotor activity (LMA) in mice was detected.
The test compound MDC was milky white powder and stored in a shade and cool place (freshly formulated with 1% DMSO before use). […] Phencyclidine (PCP), purchased from Sigma Aldrich, was a grayish white powder (freshly formulated with normal saline before use). 1% DMSO was formulated by diluting pure DMSO (purity>99.5, purchased from Sigma-Aldrich) with normal saline.
(§2) Male ICR mice having weight 22±2 g were kept at 8 mice/cage with 12/12 hours light/dark cycle, temperature 23° C.±1° C., humidity 50% to 60%, free to eat and drink water.
The administration volume was 0.1 ml/10 g body weight; PCP was formulated with normal saline at a dose of 5 mg/kg.
The test compound MDC and olanzapine were administered by gavage and PCP was administered by subcutaneous injection.
(§3) After one week of acclimation, mice were randomly divided into 6 groups according to their body weight: negative control group, model group, positive control group, and low dose group, medium dose group and high dose group for the test compound. 8-10 animals/group.
(§4) Group 1: Negative control group: Normal saline (s.c.)+1% DMSO (10.0 ml/kg, p.o.);
Group 2: Model group: PCP (5.0 mg/kg, s.c.)+1% DMSO (10.0 ml/kg, p.o.);
Group 4: MDC low dose group: PCP (5.0 mg/kg, s.c.)+MDC (5 mg/kg, p.o.);
Group 5: MDC medium dose group: PCP (5.0 mg/kg, s.c.)+MDC (10 mg/kg, p.o.);
Group 6: MDC high dose group: PCP (5.0 mg/kg, s.c.)+MDC (20 mg/kg, p.o.).
After oral administration, the animals were immediately placed in a locomotor activity box and recorded by Shanghai Jiliang ( ? ) animal video analysis system for 1 hour.
(§5) After the experiment, the activity of the animals within 1 hour was analyzed using the trajectory analysis software of Shanghai Jiliang animal video analysis system to obtain the total distance resulting from the activity.

[5] = test system: Amphetamine-induced high locomotor activity in mice; assay: Amphetamine-induced high locomotor activity (LMA) in mice; format: in vivo; design: Distance resulting from the activity, First 30 min / Distance resulting from the activity, Last 30 min: unit not given here; conditions: Amphetamine 1.0 mg/kg s.c.; 5 mg/kg p.o. (low dose group; olanzapine positive control); male ICR mice
Method: The test compound MDC was a milky white powder and stored in a shade and cool place (formulated with 1% DMSO before use). […] Amphetamine, purchased from Sigma-Aldrich, was a white powder (formulated with normal saline before use). 1% DMSO was formulated by diluting pure DMSO (purity>99.5, purchased from Sigma) with normal saline.
as §2
The administration volume was 0.1 ml/10 g body weight; Amphetamine was freshly formulated with normal saline at a dose of 1.0 mg/kg and administered subcutaneously.
as §3, §4
Group 2: Model group: Amphetamine (1.0 mg/kg, s.c.)+1% DMSO (10.0 ml/kg, p.o.);
Group 4: MDC low dose group: Amphetamine (1.0 mg/kg, s.c.)+MDC (5 mg/kg, p.o.);
Group 5: MDC medium dose group: Amphetamine (1.0 mg/kg, s.c.)+MDC (10 mg/kg, p.o.);
Group 6: MDC high dose group: Amphetamine (1.0 mg/kg, s.c.)+MDC (20 mg/kg, p.o.).
After administration, the animals were immediately placed in a locomotor activity box and recorded by Shanghai Jiliang animal video analysis system for 1 hour.
as §5

T1 sequence (P14416 whole entry): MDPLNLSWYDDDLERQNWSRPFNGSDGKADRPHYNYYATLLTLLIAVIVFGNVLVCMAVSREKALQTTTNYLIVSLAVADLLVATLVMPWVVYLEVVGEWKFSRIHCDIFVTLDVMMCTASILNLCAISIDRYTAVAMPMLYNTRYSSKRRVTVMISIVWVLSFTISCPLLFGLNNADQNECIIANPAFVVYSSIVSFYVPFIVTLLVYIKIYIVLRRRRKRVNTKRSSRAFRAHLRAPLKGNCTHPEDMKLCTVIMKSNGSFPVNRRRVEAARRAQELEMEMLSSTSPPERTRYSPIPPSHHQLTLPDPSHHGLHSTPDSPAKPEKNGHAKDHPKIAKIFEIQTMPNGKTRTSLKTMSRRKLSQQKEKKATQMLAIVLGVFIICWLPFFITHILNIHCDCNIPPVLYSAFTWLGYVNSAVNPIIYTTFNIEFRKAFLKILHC
Chain of DAT (Q01959 whole entry, species assumed): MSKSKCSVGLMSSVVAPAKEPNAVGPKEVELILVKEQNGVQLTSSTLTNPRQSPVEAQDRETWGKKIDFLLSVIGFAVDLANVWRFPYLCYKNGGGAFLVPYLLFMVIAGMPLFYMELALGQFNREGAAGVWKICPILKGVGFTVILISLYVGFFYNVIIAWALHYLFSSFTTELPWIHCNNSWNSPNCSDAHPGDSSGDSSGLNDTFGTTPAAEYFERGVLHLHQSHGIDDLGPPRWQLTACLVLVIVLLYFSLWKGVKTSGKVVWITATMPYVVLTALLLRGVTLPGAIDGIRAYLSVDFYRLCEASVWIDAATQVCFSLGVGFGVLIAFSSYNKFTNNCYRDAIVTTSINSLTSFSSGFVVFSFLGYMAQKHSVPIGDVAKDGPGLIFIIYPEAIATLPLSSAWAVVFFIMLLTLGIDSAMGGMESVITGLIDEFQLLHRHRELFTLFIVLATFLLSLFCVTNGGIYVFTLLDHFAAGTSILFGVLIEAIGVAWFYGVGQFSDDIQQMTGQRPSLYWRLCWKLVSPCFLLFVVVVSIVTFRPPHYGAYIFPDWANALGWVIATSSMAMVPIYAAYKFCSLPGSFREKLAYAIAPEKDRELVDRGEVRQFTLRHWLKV

IC50 (DAT) [nM]	SMILES	IC50 (D2 receptor [2]) [nM]	IC50 (D2 receptor [3]) [nM]	other results
–	OC1(c2ccc(Cl)cc2)CCN(Cc2c[nH]c3ccccc23)C1 (stereo not shown) [compound 4]	–	–	Antagonism to D2 receptor (in words) (D2 receptor [1]): substantially no antagonism to D2 receptor; D4 receptor antagonism (in words) (D4 receptor): moderate intensity of D4 receptor antagonism
191	c1ccc2c(CN3CCC(c4ccc5nc[nH]c5c4)C3)c[nH]c2c1 (stereo not shown) [MDC-161502-037]	269	461	–
–	Cc1cc2c(s1)Nc1ccccc1N=C2N1CCN(C)CC1 [Olanzapine, olanzapine, reference compound]	–	–	Distance resulting from the activity, First 30 min [4]: 208491; Distance resulting from the activity, Last 30 min [4]: 80518; Distance resulting from the activity, First 30 min [5]: 227653; Distance resulting from the activity, Last 30 min [5]: 158673
841	c1ccc2c(CN3CCC(c4ccc5cn[nH]c5c4)C3)c[nH]c2c1 (stereo not shown) [MDC-161502-036]	471	298	–
52.8	c1ccc2c(CN3CCC(c4ccc5[nH]nnc5c4)C3)c[nH]c2c1 (stereo not shown) [MDC-161502-040]	–	–	–
87.5	c1ccc2c(CN3CCC(c4cccc5[nH]ncc45)C3)c[nH]c2c1 (stereo not shown) [MDC-161502-038]	6.22	10.2	–

SMILES	IC50 (DAT) [nM]	IC50 (D2 receptor [2]) [nM]	IC50 (D2 receptor [3]) [nM]	other results
Oc1cccc(C2CCN(Cc3c[nH]c4ncccc34)C2)c1 (stereo not shown) [MDC-161502-034]	685	1.99	2.02	–
Oc1cccc(C2CCN(Cc3n[nH]c4ccccc34)C2)c1 (stereo not shown) [MDC-161502-033]	111	2.28	6.83	–
Oc1cc(C2CCN(Cc3c[nH]c4ccccc34)C2)ccc1F (stereo not shown) [MDC-161502-031]	28.3	14.5	22.4	–
